What was measured:
[1] = biological target: T1, Nuclear receptor subfamily 1 group I member 2 (Homo sapiens, UniProt O75469); experiment: Transactivation of PXR (unknown origin) expressed in human HepG2 cells; assay type: cell-based
T1 sequence (O75469 whole entry): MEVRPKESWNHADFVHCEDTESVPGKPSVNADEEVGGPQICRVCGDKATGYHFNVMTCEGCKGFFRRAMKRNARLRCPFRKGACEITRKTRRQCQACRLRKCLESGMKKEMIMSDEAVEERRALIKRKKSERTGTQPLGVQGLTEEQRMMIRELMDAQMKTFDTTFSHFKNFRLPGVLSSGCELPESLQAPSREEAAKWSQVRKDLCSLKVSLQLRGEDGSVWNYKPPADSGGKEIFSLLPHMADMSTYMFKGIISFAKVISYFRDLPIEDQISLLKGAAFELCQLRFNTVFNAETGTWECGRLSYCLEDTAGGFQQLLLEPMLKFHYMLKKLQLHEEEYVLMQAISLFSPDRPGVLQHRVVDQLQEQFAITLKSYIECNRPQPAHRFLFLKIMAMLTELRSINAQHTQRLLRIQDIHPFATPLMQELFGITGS

[2] = biological target: T1, Nuclear receptor subfamily 1 group I member 2; experiment: (§1) Transactivation of PXR (unknown origin) expressed in human HepG2 cells assessed as maximum receptor activation response relative to control; assay type: cell-based; conditions: hepg2
[3] = Stability in mouse liver microsomes assessed as parent compound remaining after 10 mins; assay type: ADME, Microsome; conditions: for Stability: microsomes, 10 min; for remaining at 10 min: liver microsomes, read-out: Stability
[4] = biological target: T2, Nuclear receptor ROR-alpha (Homo sapiens, UniProt P35398); experiment: Inverse agonist activity at human Gal4-fused RORalpha LBD (272 to 556 residues) expressed in human Jurkat cells measured after 18 hrs by steady-glo luciferase reporter gene assay; assay type: cell-based
T2 sequence (P35398 whole entry): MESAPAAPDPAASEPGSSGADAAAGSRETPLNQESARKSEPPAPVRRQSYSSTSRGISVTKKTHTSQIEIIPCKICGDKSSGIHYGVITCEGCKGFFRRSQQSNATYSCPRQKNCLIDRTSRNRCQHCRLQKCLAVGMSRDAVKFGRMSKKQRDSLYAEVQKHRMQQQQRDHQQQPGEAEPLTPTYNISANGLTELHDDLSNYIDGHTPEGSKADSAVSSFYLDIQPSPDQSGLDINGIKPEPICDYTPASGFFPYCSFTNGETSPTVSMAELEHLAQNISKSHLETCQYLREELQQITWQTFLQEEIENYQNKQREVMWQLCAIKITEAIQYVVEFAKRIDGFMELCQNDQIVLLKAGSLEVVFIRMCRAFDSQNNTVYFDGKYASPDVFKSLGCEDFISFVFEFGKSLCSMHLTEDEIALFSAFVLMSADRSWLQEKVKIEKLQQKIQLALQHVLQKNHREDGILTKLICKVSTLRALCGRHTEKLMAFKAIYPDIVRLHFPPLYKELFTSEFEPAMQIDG

[5] = biological target: T3, Nuclear receptor ROR-beta (Homo sapiens, UniProt Q92753); experiment: Inverse agonist activity at human Gal4-fused RORbeta LBD (200 to 559 residues) expressed in human Jurkat cells measured after 18 hrs by steady-glo luciferase reporter gene assay; assay type: cell-based
T3 sequence (Q92753 whole entry): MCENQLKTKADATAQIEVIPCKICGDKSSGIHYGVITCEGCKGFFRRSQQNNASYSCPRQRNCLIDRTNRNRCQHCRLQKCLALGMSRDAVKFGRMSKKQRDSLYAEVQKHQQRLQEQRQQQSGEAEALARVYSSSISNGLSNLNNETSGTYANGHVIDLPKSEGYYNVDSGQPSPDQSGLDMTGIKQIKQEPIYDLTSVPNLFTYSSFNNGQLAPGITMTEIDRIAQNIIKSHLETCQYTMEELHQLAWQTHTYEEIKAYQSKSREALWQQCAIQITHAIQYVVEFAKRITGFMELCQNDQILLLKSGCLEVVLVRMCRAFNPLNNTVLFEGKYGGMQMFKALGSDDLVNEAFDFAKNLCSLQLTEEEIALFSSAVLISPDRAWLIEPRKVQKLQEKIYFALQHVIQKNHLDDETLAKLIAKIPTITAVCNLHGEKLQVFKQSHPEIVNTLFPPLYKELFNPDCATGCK

[6] = biological target: T4, Oxysterols receptor LXR-alpha (Homo sapiens, UniProt Q13133); experiment: Transactivation of human GAL4-fused LXRalpha expressed in African green monkey CV1 cells; assay type: cell-based
T4 sequence (Q13133 whole entry): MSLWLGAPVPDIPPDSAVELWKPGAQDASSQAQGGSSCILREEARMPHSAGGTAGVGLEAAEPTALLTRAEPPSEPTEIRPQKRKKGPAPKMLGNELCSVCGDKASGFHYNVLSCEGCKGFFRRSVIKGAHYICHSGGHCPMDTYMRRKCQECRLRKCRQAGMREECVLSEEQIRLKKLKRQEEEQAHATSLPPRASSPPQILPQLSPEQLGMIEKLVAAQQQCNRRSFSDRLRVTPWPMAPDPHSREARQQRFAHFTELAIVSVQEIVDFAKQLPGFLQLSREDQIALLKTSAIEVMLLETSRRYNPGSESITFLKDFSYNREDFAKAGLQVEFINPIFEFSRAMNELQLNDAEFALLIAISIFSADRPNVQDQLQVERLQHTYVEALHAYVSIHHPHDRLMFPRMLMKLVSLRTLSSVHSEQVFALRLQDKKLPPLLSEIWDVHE

[7] = biological target: T5, Oxysterols receptor LXR-beta (Homo sapiens, UniProt P55055); experiment: Transactivation of human GAL4-fused LXRbeta expressed in African green monkey CV1 cells; assay type: cell-based
T5 sequence (P55055 whole entry): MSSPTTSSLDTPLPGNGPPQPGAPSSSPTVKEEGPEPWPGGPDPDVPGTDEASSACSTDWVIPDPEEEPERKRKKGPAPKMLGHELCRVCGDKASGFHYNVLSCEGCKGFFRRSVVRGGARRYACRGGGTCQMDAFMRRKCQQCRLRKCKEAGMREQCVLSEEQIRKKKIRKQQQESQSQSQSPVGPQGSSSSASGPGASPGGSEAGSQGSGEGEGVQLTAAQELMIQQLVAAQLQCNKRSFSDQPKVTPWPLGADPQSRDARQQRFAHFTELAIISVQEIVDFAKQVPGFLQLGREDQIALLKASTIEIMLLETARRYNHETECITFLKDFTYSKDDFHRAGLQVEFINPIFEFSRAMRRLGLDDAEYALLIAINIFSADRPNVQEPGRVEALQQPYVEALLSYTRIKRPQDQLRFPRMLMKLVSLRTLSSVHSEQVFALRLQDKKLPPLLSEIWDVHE

[8] = Stability in human liver microsomes assessed as parent compound remaining after 10 mins; assay type: ADME, Microsome; conditions: for Stability: microsomes, 10 min; for remaining at 10 min: liver microsomes, read-out: Stability
PXR = biological target: T6, PXR (Homo sapiens, UniProt O75469); experiment: as §1; assay type: cell-based; conditions: human HepG2 cells that express PXR, read-out: %max
T6 sequence (O75469 whole entry): T1 sequence (O75469 whole entry)

Row | Structure (SMILES) | EC50 [1] | %max [2] | Stability [3] | EC50 ([4]; jurkat) | EC50 ([5]; jurkat) | EC50 [6] | EC50 [7] | Stability [8] | EC50 ([1]; hepg2) | remaining at 10 min [8] | remaining at 10 min [3] | EC50 [4] | EC50 [5] | Emax (PXR)
1 | O=C(C1CCS(=O)(=O)C1)N1CC[C@](c2ccc(C(F)(C(F)(F)F)C(F)(F)F)cc2)(S(=O)(=O)c2ccc(F)cc2)C1 (stereo in doubt; 33) | 7.2 µM | 37% | 96% | > 40 µM | > 40 µM | > 7.5 µM | > 7.5 µM | – | – | – | – | – | – | –
2 | O=C(O)C1CCC(O)(C(=O)N2CC[C@](c3ccc(C(F)(C(F)(F)F)C(F)(F)F)cc3)(S(=O)(=O)c3ccc(F)cc3)C2)CC1 (stereo in doubt; 13) | – | 19% | 98% | > 40 µM | > 40 µM | > 7.5 µM | > 7.5 µM | 95% | > 50 µM | – | – | – | – | –
3 | O=C(O)C1CCC(O)(C(=O)N2CC[C@](c3ccc(C(F)(C(F)(F)F)C(F)(F)F)cc3)(S(=O)(=O)c3ccc(F)cc3)C2)CC1 (stereo in doubt; 12) | > 50 µM | 9% | – | – | – | > 7.5 µM | > 7.5 µM | – | – | 100% | 99% | > 40 µM | > 40 µM | –
4 | CS(=O)(=O)C1CCC(C(=O)N2CC[C@](c3ccc(C(F)(C(F)(F)F)C(F)(F)F)cc3)(S(=O)(=O)c3ccc(F)cc3)C2)CC1 (stereo in doubt; 28) | 1.8 µM | 29% | – | – | – | > 7.5 µM | > 7.5 µM | – | – | 88% | 69% | > 40 µM | > 40 µM | –
5 | O=C1NC(=O)C2(CCC(C(=O)N3CC[C@](c4ccc(C(F)(C(F)(F)F)C(F)(F)F)cc4)(S(=O)(=O)c4ccc(F)cc4)C3)CC2)N1 (stereo in doubt; 24) | > 14 µM | 28% | – | – | – | > 7.5 µM | > 7.5 µM | – | – | 84% | 81% | > 40 µM | > 40 µM | –
6 | CCC1(C(=O)N2CC[C@](c3ccc(C(F)(C(F)(F)F)C(F)(F)F)cc3)(S(=O)(=O)c3ccc(F)cc3)C2)CCS(=O)(=O)CC1 | 5.2 µM | – | – | – | – | > 7.5 µM | > 7.5 µM | – | – | 3% | 0% | > 40 µM | > 40 µM | 32%
7 | O=C(O)C12CCC(C(=O)N3CC[C@](c4ccc(C(F)(C(F)(F)F)C(F)(F)F)cc4)(S(=O)(=O)c4ccc(F)cc4)C3)(CC1)OC2 | > 50 µM | – | – | – | – | > 7.5 µM | > 7.5 µM | – | – | 90% | 94% | > 40 µM | > 40 µM | 5%
8 | O=C(C1CCS(=O)(=O)CC1)N1CC[C@](c2ccc(C(F)(C(F)(F)F)C(F)(F)F)cc2)(S(=O)(=O)c2ccc(F)cc2)C1 | > 50 µM | – | – | – | – | > 7.5 µM | > 7.5 µM | – | – | 93% | 96% | > 40 µM | > 40 µM | 5%
9 | O=C(N1CC[C@](c2ccc(C(F)(C(F)(F)F)C(F)(F)F)cc2)(S(=O)(=O)c2ccc(F)cc2)C1)C1(O)CCS(=O)(=O)CC1 | > 50 µM | – | – | – | – | > 7.5 µM | > 7.5 µM | – | – | 100% | 90% | > 40 µM | > 40 µM | 6%
10 | O=C(N1CC[C@](c2ccc(C(F)(C(F)(F)F)C(F)(F)F)cc2)(S(=O)(=O)c2ccc(F)cc2)C1)C1(F)CCS(=O)(=O)CC1 | > 50 µM | – | – | – | – | > 7.5 µM | > 7.5 µM | – | – | 100% | 90% | > 40 µM | > 40 µM | 16%
11 | C[C@]1(C(=O)O)CC[C@H](C(=O)N2CC[C@](c3ccc(C(F)(C(F)(F)F)C(F)(F)F)cc3)(S(=O)(=O)c3ccc(F)cc3)C2)CC1 | > 50 µM | – | – | – | – | > 7.5 µM | > 7.5 µM | – | – | 97% | 93% | > 40 µM | > 40 µM | 18%
12 | O=C1NC(=O)C2(CCC(C(=O)N3CC[C@](c4ccc(C(F)(C(F)(F)F)C(F)(F)F)cc4)(S(=O)(=O)c4ccc(F)cc4)C3)CC2)N1 (stereo in doubt; 25) | > 50 µM | 3% | 82% | > 40 µM | > 40 µM | > 7.5 µM | > 7.5 µM | 93% | – | – | – | – | – | –
13 | CO[C@]1(C(=O)N2CC[C@](c3ccc(C(F)(C(F)(F)F)C(F)(F)F)cc3)(S(=O)(=O)c3ccc(F)cc3)C2)CC[C@H](C(=O)O)CC1 | > 18 µM | – | – | – | – | > 7.5 µM | > 7.5 µM | – | – | 82% | 95% | > 40 µM | > 40 µM | 94%
14 | CS(=O)(=O)C1CCC(C(=O)N2CC[C@](c3ccc(C(F)(C(F)(F)F)C(F)(F)F)cc3)(S(=O)(=O)c3ccc(F)cc3)C2)CC1 (stereo in doubt; 29) | > 50 µM | 6% | – | > 40 µM | > 40 µM | > 7.5 µM | > 7.5 µM | 100% | – | – | – | – | – | –
15 | O=C(O)[C@@H]1[C@@H]2C[C@@H](C(=O)N3CC[C@](c4ccc(C(F)(C(F)(F)F)C(F)(F)F)cc4)(S(=O)(=O)c4ccc(F)cc4)C3)C[C@@H]21 | > 50 µM | – | – | – | – | > 7.5 µM | > 7.5 µM | – | – | 100% | 84% | > 40 µM | > 40 µM | 11%
16 | O=C([C@H]1CC[C@@](F)(C(=O)O)CC1)N1CC[C@](c2ccc(C(F)(C(F)(F)F)C(F)(F)F)cc2)(S(=O)(=O)c2ccc(F)cc2)C1 | > 22 µM | – | – | – | – | > 7.5 µM | > 7.5 µM | – | – | 82% | 94% | > 40 µM | > 40 µM | 69%
